Laboratory results taken from patent publication US9636311B2, “N,N′-di-1 naphthylguanidine HCl (NAGH) and N,N′-di-p-nitrophenylguanidine HCl (NAD) treatment for stroke at delayed timepoints” (University of South Florida, priority 2012, dated 2017).

Assays:
Type in all cases: in vivo, rat
rats following MCAO [1] = test: Iba1 immunostaining of microglia after MCAO; settings: 30 days after stroke; p>0.05
Protocol: (§1) MCAO surgeries were performed as described elsewhere (Vendrame M, Cassady C J, Newcomb J, Butler T, Pennypacker K R, Zigova T, et al. Stroke. 2004; 35:2390-2395). Briefly, rats were anesthetized with isoflurane, and the right common carotid and external carotid arteries were exposed using blunt dissection techniques. The vagus nerve was separated from common carotid artery and the external carotid artery was ligated proximally, and transected near the bifurcation. An embolus 40 mm in length (4.0 siliconized monofilament) was inserted into the external carotid artery and fed distally into the origin of the middle cerebral artery (˜25 mm from insertion) through the internal carotid artery. Blood samples were taken and analyzed using an i-STAT handheld analyzer for hemoglobin, hematocrit, ionized calcium, glucose, sodium, potassium, pH, pCO2, HCO3, TCO2, base excess, pO2, and O2. Cerebral blood flow was recorded using a Laser Doppler Monitor (Moor Instruments) to verify occlusion. […]
Anti-Iba1 (1:500; Wako 019-19741) immunocytochemistry was used for the specific identification of microglia. […] Iba-1 positive cells were quantified (n=12) as previously detailed by Smirkin et al. (Smirkin, Matsumoto et al. 2010) with little modification. […] Total number of Iba-1 positive cells were counted manually by two observer using ImagePro plus software.

rats following MCAO [2] = test: Elevated body swing test after MCAO; settings: 30 days after MCAO; p=0.009
Protocol: as §1
The animal was placed in a Plexiglas box (40×40×35.5 cm), allowed to habituate for 2 minutes and attain a neutral position, defined as having all four paws on the ground. […] A swing was recorded whenever the animal moved its head out of the vertical axis to the right or left over […]. Swings were recorded using a hand counter. […]

rats following MCAO [3] = test: Battery of behavioral tests after MCAO (corner, grip, rotorod, step, cylinder); settings: 30 days after MCAO
Protocol: After surgery, animals were tested was performed once before surgery and 30 days post-surgery for motor coordination and behavior. All behavioral data are reported as mean+sem.
Rotorod test, which measures motor coordination, was conducted using Omni-rotor Rotorod (Omnitech, Inc). Animals were trained on the accelerating rotorod apparatus for 3 consecutive days before times were collected. Animals were placed on the revolving rod and instrument was set to accelerate to a maximum speed of 40 rpm over 180 seconds. Latency to fall (in seconds) was recorded. This test was performed in triplicate once per day for 3 days.
Rats were held tightly with one forelimb placed on a hard flat table top and then pulled for a length of 1 meter in the direction of the placed forelimb at constant velocity. The test was repeated with the opposite forelimb. This was repeated three times for each forelimb and the percent of contralateral forelimb paw was obtained. The bias was standardized as the absolute number of steps with the contralateral paw minus 100.
The animals were placed in a transparent cylinder about 20 cm in diameter and 30 cm in height with an open top. The number times each paw was placed on the sides of the cylinder was counted a5 minute period. The test was videotaped and a mirror was placed behind the cylinder allowing the experimenter to see the placement of paws when the animal was facing away from the camera.
A 30 degree angle was formed using the edges of two plexiglass boards. The animals were placed halfway into the corner facing the corner and the total number of left and right turns was recorded. A total of 10 trials were conducted and videotaped. A non-lesioned animal turned randomly toward the left or right, while a lesioned animal preferentially turned toward the non-impaired (left) side. Results were reported as the percentage of ipsilateral (injury site, right side) versus contralateral turns.
Motor deficits were assessed using a grip strength meter (Bioseb, # BIO-GS3). […] Grip strength was recorded in Newtons (N). […]

Compound: Cl.N=C(Nc1cccc2ccccc12)Nc1cccc2ccccc12 [NAGH, N,N′-di-1-Naphthylguanidine hydrochloride]
- Activated microglia (Iba1 positive cells) in peri-infarct and ischemic core vs DMSO (rats following MCAO [1]): not statistically significant
- EBST bias vs DMSO (rats following MCAO [2]): significantly less bias
- Overall behavioral data vs vehicle, all tests except EBST (rats following MCAO [3]; NAGH 0.86 mg/kg s.c. x3): no significant differences
- Changes in asymmetry on the cylinder test (rats following MCAO [3]; NAGH): failed to gain significance
